Patent publication US10322110B2, “Imidazole-based antimicrobial agents” (priority 2014, dated 2019)
Values after ≈ are worked out from the molar mass of the structure shown. Like-named read-outs stand apart in the source and are kept apart here.

Legend:
[1] = system: Staphylococcus epidermidis (PCI 1200, ATCC12228); assay: broth microdilution MIC assay, Staphylococcus epidermidis; assay type: cell-based; details: ATCC12228, read-out: Antibacterial activity SE (Staphylococcus epidermidis)
[2] = system: Mycobacterium smegmatis (mc(2)155, ATCC700084); assay: broth microdilution MIC assay, Mycobacterium smegmatis; details: MIC activity class
[3] = system: Human hepatocytes (HepaRG cells); assay: human cytotoxicity assay in vitro (CellTiter-Glo), hepatocytes; assay type: cell-based; details: cytotoxicity class
[4] = system: Bacillus subtilis (Marburg strain, ATCC6051); assay: microbe, parasite or virus in culture; assay type: cell-based; details: ATCC6051, read-out: Antibacterial activity BS (Bacillus substilis)
[5] = system: Staphylococcus aureus MRSA (COL); assay: broth microdilution MIC assay, Staphylococcus aureus MRSA (COL); assay type: cell-based; details: for MIC: Staphylococcus aureus, MRSA
[6] = system: penicillin-, erythromycin- and tetracycline-resistant Streptococcus pneumoniae (ATCC 700677), ARSP; assay: microbe, parasite or virus in culture; assay type: cell-based
[7] = system: Staphylococcus aureus MSSA (Newman); assay: broth microdilution MIC assay, Staphylococcus aureus MSSA (Newman); assay type: cell-based; details: for MIC: Staphylococcus aureus; for Antibacterial activity Staphylococcus aureus (MSSA): MIC100 class score, broth microdilution
[8] = system: Streptococcus pneumoniae (Chester, ATCC49619); assay: broth microdilution MIC assay, Streptococcus pneumoniae; assay type: cell-based; details: MIC100 class score, 24 h
[9] = read-out: Antibacterial activity MRSA (Staphylococcus aureus MRSA)
[10] = MIC100 class score, broth microdilution, 24 h, read-out: Antibacterial activity Staphylococcus aureus (MRSA)
[11] = ATCC700677, MIC activity class, read-out: Antibacterial activity ARSP (multi-drug resistant-SP)
[12] = 24 h, read-out: Antibacterial activity Staphylococcus aureus (MSSA)
[13] = read-out: Antibacterial activity MSSA (Staphylococcus aureus MSSA)
[14] = ATCC700677, read-out: Antibacterial activity ARSP (multi-drug resistant-SP)

| Structure (SMILES) | MIC [1] [µg/mL] | Antibacterial activity MS (Mycobacterium smegmatis) [2] | cytotoxicity cell line H (hepatocytes) [3] | MIC [4] [µg/mL] | MIC [5, 9] [µg/mL] | MIC [5, 10] [µg/mL] | MIC [6, 11] [µg/mL] | MIC [7, 12] [µg/mL] | MIC [7, 13] [µg/mL] | Antibacterial activity Streptococcus pneumoniae [8] | MIC [6, 14] [µg/mL] | MIC ([5]; 24 h, read-out: Antibacterial activity Staphylococcus aureus (MRSA)) [µg/mL] | Antibacterial activity Staphylococcus aureus (MRSA) ([5]; MIC100 class score, broth microdilution, 24 h) | Antibacterial activity Staphylococcus aureus (MSSA) ([7]; 24 h) |
| --- | --- | --- | --- | --- | --- | --- | --- | --- | --- | --- | --- | --- | --- | --- |
| Cc1nc(-c2ccc(-c3ccc(Cl)cc3Cl)o2)[nH]c1-c1ccccc1 [Compound 1] | 3 to 10 (≈ 8.12 to 27.1 µM) | 2 (MIC100 of 11-201 μg/ml) | 2 | 3 to 10 (≈ 8.12 to 27.1 µM) | 1 to 3 (≈ 2.71 to 8.12 µM) | 1 to 3 (≈ 2.71 to 8.12 µM) | < 1 | 1 to 3 (≈ 2.71 to 8.12 µM) | 1 to 3 (≈ 2.71 to 8.12 µM) |  |  |  |  |  |
| Cc1[nH]c(-c2ccc(-c3ccc(Cl)cc3)s2)nc1-c1ccccc1 [Compound 6] |  | 2 (MIC100 of 11-201 μg/ml) |  | 11 to 201 (≈ 31.4 to 573 µM) |  |  | 2 to 5 (≈ 5.7 to 14.3 µM) |  |  | 3 (MIC100 of 2-5 μg/ml) |  |  |  |  |
| Cc1[nH]c(-c2ccc(-c3ccccc3F)s2)nc1-c1ccccc1 [Compound 15] |  | 2 (MIC100 of 11-201 μg/ml) |  |  |  |  |  |  |  | 3 (MIC100 of 2-5 μg/ml) | 2 to 5 (≈ 5.98 to 15 µM) |  |  |  |
| Cc1nc(-c2ccc(-c3ccc(Cl)cc3Cl)o2)[nH]c1-c1ccc(F)cc1 [Compound 16] | 3 to 10 (≈ 7.75 to 25.8 µM) |  | 3 | 3 to 10 (≈ 7.75 to 25.8 µM) | 1 to 3 (≈ 2.58 to 7.75 µM) |  | < 1 |  | 1 to 3 (≈ 2.58 to 7.75 µM) | 3 (MIC100 of 2-5 μg/ml) |  |  |  |  |
| Cc1[nH]c(-c2ccc(-c3ccccc3OC(F)(F)F)o2)nc1-c1ccccc1 [Compound 18] | 3 to 10 (≈ 7.81 to 26 µM) |  | 2 | 1 to 3 (≈ 2.6 to 7.81 µM) | 3 to 10 (≈ 7.81 to 26 µM) |  | < 1 | 1 to 3 (≈ 2.6 to 7.81 µM) | 1 to 3 (≈ 2.6 to 7.81 µM) |  |  | 3 to 10 (≈ 7.81 to 26 µM) |  |  |
| Cc1nc(-c2ccc(-c3ccccc3OC(F)(F)F)o2)[nH]c1-c1ccccc1Cl [Compound 19] |  | 2 (MIC100 of 11-201 μg/ml) | 3 |  | 20 to 50 (≈ 47.8 to 119 µM) |  |  |  | 20 to 50 (≈ 47.8 to 119 µM) |  | 2 to 5 (≈ 4.78 to 11.9 µM) |  |  |  |
| Cc1nc(-c2ccc(-c3ccccc3OC(F)(F)F)o2)[nH]c1-c1cccc(Cl)c1 [Compound 21] | 20 to 50 (≈ 47.8 to 119 µM) |  | 3 | 3 to 10 (≈ 7.16 to 23.9 µM) |  |  | < 1 |  | 1 to 3 (≈ 2.39 to 7.16 µM) |  |  |  | 3 (MIC100 of 3-10 μg/ml) | 3 (MIC100 of 3-10 μg/ml) |
| Cc1[nH]c(-c2ccc(-c3ccccc3OC(F)(F)F)o2)nc1-c1ccc(F)cc1 [Compound 23, 4-(4-Fluoro-phenyl)-5-methyl-2-[5-(2-trifluoromethoxy-phenyl)-furan-2-yl]-1H-imidazole] | 20 to 50 (≈ 49.7 to 124 µM) |  | 3 | 1 to 3 (≈ 2.49 to 7.46 µM) | 3 to 10 (≈ 7.46 to 24.9 µM) |  | < 1 |  | 1 to 3 (≈ 2.49 to 7.46 µM) |  |  |  |  | 3 (MIC100 of 3-10 μg/ml) |
| Cc1[nH]c(-c2ccc(-c3ccccc3OC(F)(F)F)o2)nc1-c1ccc(Cl)cc1 [Compound 24] | 20 to 50 (≈ 47.8 to 119 µM) |  | 2 | 3 to 10 (≈ 7.16 to 23.9 µM) | 3 to 10 (≈ 7.16 to 23.9 µM) |  | < 1 |  | 3 to 10 (≈ 7.16 to 23.9 µM) |  |  |  |  | 3 (MIC100 of 3-10 μg/ml) |
| Cc1[nH]c(-c2ccc(-c3ccccc3OC(F)(F)F)o2)nc1Cc1ccc(Br)cc1 [Compound 30, 4-(4-Bromo-benzyl)-5-methyl-2-[5-(2-trifluoromethoxy-phenyl)-furan-2-yl]-1H-imidazole] | 11 to 201 (≈ 23 to 421 µM) |  | 3 | 3 to 10 (≈ 6.29 to 21 µM) | 3 to 10 (≈ 6.29 to 21 µM) |  | < 1 |  | 3 to 10 (≈ 6.29 to 21 µM) |  |  |  |  | 3 (MIC100 of 3-10 μg/ml) |
| Cc1nc(-c2ccc(-c3cccc(OC(F)(F)F)c3)o2)[nH]c1-c1ccccc1 [Compound 34] | 20 to 50 (≈ 52 to 130 µM) | 2 (MIC100 of 11-201 μg/ml) | 2 | 3 to 10 (≈ 7.81 to 26 µM) | 1 to 3 (≈ 2.6 to 7.81 µM) | 1 to 3 (≈ 2.6 to 7.81 µM) | < 1 | 1 to 3 (≈ 2.6 to 7.81 µM) | 1 to 3 (≈ 2.6 to 7.81 µM) |  |  |  |  |  |
| Cc1nc(-c2ccc(-c3cccc(OC(F)(F)F)c3)o2)[nH]c1-c1ccc(F)cc1 [Compound 37] | 20 to 50 (≈ 49.7 to 124 µM) | 2 (MIC100 of 11-201 μg/ml) | 3 | 3 to 10 (≈ 7.46 to 24.9 µM) | 3 to 10 (≈ 7.46 to 24.9 µM) |  | 2 to 5 (≈ 4.97 to 12.4 µM) |  | 3 to 10 (≈ 7.46 to 24.9 µM) |  |  |  |  | 3 (MIC100 of 3-10 μg/ml) |
